Test results from PMC11672724, “Antiparasitic Activities of Acyl Hydrazones from Cinnamaldehydes and Structurally Related Fragrances” (Antibiotics, 2024).

Legend:
[1] = system: macrophages; experiment: Macrophage cytotoxicity (MTT assay, 72 h); type: cell-based, BALB/c mice; settings: Mus musculus, IC50 ± SD
Procedure: Plates were incubated for 24 h at 37 °C in a 5% CO2 environment to allow infection and amastigote differentiation. Infected cells were then washed with PBS and overlaid with RPMI 1640 medium containing the test compounds at the same concentrations as applied for the experiments with promastigotes, followed by incubation at 37 °C and 5% CO2 for 72 h. […] The percentage of infected macrophages was determined microscopically after fixation, Giemsa staining, and medium removal. IC50 values were calculated from three independent experiments. To assess the test compounds’ cytotoxicity, MTT assays were performed. […] Negative control cells were only given media with 2% FBS and 1% DMSO. The cells were cultured for 4 h after the supernatant was disposed of, and 50 μL of RPMI 1640 media containing 14 μL MTT (5 mg/mL) was added. After removing the supernatant once again, 150 μL of DMSO was added. IC50 values were determined from three independent experiments.

[2] = system: L. major promastigotes; experiment: Leishmania major promastigote assay (MTT, 72 h); type: cell-based; settings: for IC50: 72 h, IC50 ± SD, MTT
Procedure: (§1) Promastigotes of L. major were obtained from a patient (February 2016) and cultured at 26 °C in Schneider’s Drosophila medium (Invitrogen, Carlsbad, CA, USA) supplemented with 10% heat-inactivated fetal bovine serum (FBS, Invitrogen, USA) and antibiotics, with weekly transfers in a tissue culture flask. Promastigotes were cryopreserved in liquid nitrogen at a concentration of 3 × 10^6 parasites/mL. Virulent L. major parasites were maintained by serial passage in female BALB/c mice, achieved by injecting hind footpads with 1 × 10^6 stationary-phase promastigotes. Amastigotes were isolated from the mice after 8 weeks, then converted to promastigotes by cultivation at 26 °C in Schneider’s medium containing 10% FBS and antibiotics. Amastigote-derived promastigotes, which underwent several in vitro passages, were used for the infection studies. BALB/c mice (both male and female) were provided by the Pharmaceutical College, King Saud University, Kingdom of Saudi Arabia, and housed in specific pathogen-free conditions following the ethical guidelines of the Qassim University Research Ethics Committee (permission number: 20-03-20).
L. major promastigotes in the logarithmic phase were cultured in phenol-red-free RPMI 1640 medium (Invitrogen, USA) with 10% FBS in 96-well plates at 10^6 cells/mL (200 μL/well, counted with a hemocytometer). Test compounds were added at final concentrations of 50, 25, 12.5, 6.25, 3.13, 1.65, and 0.75 μg/mL. […] After incubation at 26 °C for 72 h, viable promastigotes were counted using an MTT colorimetric assay. The formed formazan was dissolved in a detergent and the absorbance was measured at 570 nm using an ELISA reader. IC50 values were derived from three independent experiments.

[3] = system: L. major amastigotes; experiment: Leishmania major amastigotes in peritoneal macrophages (percentage of infected macrophages, 72 h); type: cell-based; settings: Macrophage, IC50 ± SD
Procedure: as §1
Activity against amastigotes in macrophages was evaluated using peritoneal macrophages, which were harvested from 6–8-week-old BALB/c mice of different sex, and plated at 5 × 10^4 cells/well in 96-well plates containing phenol-red-free RPMI 1640 medium with 10% FBS. After 4 h at 37 °C and 5% CO2 to promote adhesion, cells were washed with PBS, and 200 μL of an L. major promastigote solution (10 promastigotes per macrophage) was added. Plates were incubated for 24 h at 37 °C in a 5% CO2 environment to allow infection and amastigote differentiation. Infected cells were then washed with PBS and overlaid with RPMI 1640 medium containing the test compounds at the same concentrations as applied for the experiments with promastigotes, followed by incubation at 37 °C and 5% CO2 for 72 h. […] IC50 values were calculated from three independent experiments.

[4] = system: Vero monkey kidney cells; experiment: Vero cell cytotoxicity (MTT assay, 72 h); type: cell-based; settings: Primates, IC50 ± SD
Procedure: To assess the test compounds’ cytotoxicity, MTT assays were performed. The Vero cells and macrophages were cultivated for 24 h at 37 °C in RPMI 1640 media with 10% FBS and 5% CO2 in 96-well plates (5 × 10^3 cells/well/200 μL). Following a washing step with PBS, the cells were treated with test compounds at different concentrations (50, 25, 12.5, 6.25, 3.13, 1.65, and 0.75 μg /mL) in 10% FBS medium for 72 h. Negative control cells were only given media with 2% FBS and 1% DMSO. The cells were cultured for 4 h after the supernatant was disposed of, and 50 μL of RPMI 1640 media containing 14 μL MTT (5 mg/mL) was added. After removing the supernatant once again, 150 μL of DMSO was added. IC50 values were determined from three independent experiments.

[5] = system: T. gondii RH strain tachyzoites; experiment: Toxoplasma gondii cells drug testing assay (infection index in Vero cells, 72 h); type: cell-based; settings: for IC50: Toxoplasma gondii, Vero, IC50 ± SD, three independent experiments, 72 h; for SI = selectivity index (Vero/T. gondii): ratio IC50 Vero / IC50 T. gondii
Procedure: Cells of the Vero cell line (ATCC® CCL81™, Manassas, VA, USA) were used to cultivate T. gondii RH strain tachyzoites. Vero cells were maintained in complete RPMI 1640 medium (Thermo Fisher Scientific, Waltham, MA, USA). For cell cultivation, 96-well plates were prepared with 5 × 10^3 cells per well in 200 μL of RPMI 1640 medium, then incubated at 37 °C and 5% CO2 for 24 h. The medium was then removed, and cells were washed with phosphate-buffered saline (PBS). Next, RPMI 1640 medium with 2% FBS and parasites at a 5:1 parasite-to-cell ratio were added. After a 5 h incubation at 37 °C and 5% CO2, cells were washed with PBS and subjected to further treatments. […] After incubation at 37 °C and 5% CO2 for 72 h, cells were washed with PBS, fixed in 10% formalin, and stained with 1% toluidine blue. An inverted photomicroscope was used to assess cell infection and to determine the infection index (number of infected cells out of 200 counted cells). The inhibition percentage was calculated as follows:Inhibition (%) = [(I Control − I Experimental)/I Control] × 100 where “I Control” represents the infection index of untreated cells, and “I Experimental” represents the infection index of cells treated with test compounds. The effects of the compounds on parasite growth are expressed as IC50 values derived from three independent experiments.

IC50 ([2]; Leishmania major) [µM]	IC50 [3] [µM]	melting point [°C]	IC50 [2] [µM]	SMILES	IC50 [1] [µM]	IC50 [4] [µM]	activity against T. gondii (in words) [5]	IC50 [5] [µM]	SI (promastigotes) = selectivity index (macrophages/L. major promastigotes) ([2]; ratio IC50 macrophages / IC50 promastigotes)	SI = selectivity index (Vero/T. gondii) [5]
> 49.6	> 49.6	249 to 250	–	O=C(N/N=C/C=C/c1ccccc1)c1cccc(O)c1 [Compound 2e, (E)-N′-(Cinnamylidene)-3-hydroxybenzoylhydrazide]	> 49.6	46.2 ± 6.4	inactive	> 49.6	–	–
< 30	> 56	88 to 89	29.1 ± 3.3	CC(C)Cc1ccc(CC(C)/C=N/NC(=O)c2cccc(Cl)c2)cc1 (stereo not drawn) [Compound 3f, N′-2-Methyl-3-[4-(2-methylpropyl)phenyl]propanylidene-3-chlorobenzoylhydrazide]	> 56	50.2 ± 7.7	–	22 ± 3.3	>1.9	2.3
> 59.1	> 59.1	182 to 183	–	CC(C)Cc1ccc(CC(C)/C=N/NC(=O)c2cccc(O)c2)cc1 (stereo not drawn) [Compound 3c, N′-2-Methyl-3-[4-(2-methylpropyl)phenyl]propanylidene-3-hydroxybenzoylhydrazide]	> 59.1	> 59.1	–	55.3 ± 9.4	–	–
> 42.4	> 42.4	208	–	CN(C)c1ccc(/C=C/C=N/NC(=O)c2cccc(F)c2)cc1 [Compound 2j, (E)-N′-(4-Dimethylaminocinnamylidene)-3-fluorobenzoylhydrazide]	> 42.4	> 42.4	–	> 42.4	–	–
> 42.7	> 42.7	257 to 258	–	CN(C)c1ccc(/C=C/C=N/NC(=O)c2cccc(O)c2)cc1 [Compound 2f, (E)-N′-(4-Dimethylaminocinnamylidene)-3-hydroxybenzoylhydrazide]	> 42.7	40.1 ± 6.8	inactive	> 42.7	–	–
> 49.2	> 49.2	205 to 206	–	O=C(N/N=C/C=C/c1ccccc1)c1cccc(F)c1 [Compound 2i, (E)-N′-(Cinnamylidene)-3-fluorobenzoylhydrazide]	> 49.2	44 ± 6.7	–	39.1 ± 6.4	–	1.1
> 58.8	> 58.8	82 to 83	–	CC(C)Cc1ccc(CC(C)/C=N/NC(=O)c2ccccc2F)cc1 (stereo not drawn) [Compound 3d, N′-2-Methyl-3-[4-(2-methylpropyl)phenyl]propanylidene-2-fluorobenzoylhydrazide]	> 58.8	56.1 ± 10.4	–	46.3 ± 5.5	–	1.2
> 40.3	> 40.3	210	–	CN(C)c1ccc(/C=C/C=N/NC(=O)c2cccc(Cl)c2)cc1 [Compound 2k, (E)-N′-(4-Dimethylaminocinnamylidene)-3-chlorobenzoylhydrazide]	> 40.3	> 40.3	–	> 40.3	–	–
> 61.7	> 61.7	196 to 197	–	CC(C)c1cccc(C(C)C/C=N/NC(=O)c2cccc(O)c2)c1 (stereo not drawn) [Compound 4c, N′-3-(3-Isopropylphenyl)butanylidene-3-hydroxybenzoylhydrazide]	> 61.7	29.1 ± 2.6	–	> 61.7	–	–
> 64.2	> 64.2	205 to 206	–	CN(C)c1ccc(/C=C/C=N/NC(=O)c2ccccc2F)cc1 [Compound 2h, (E)-N′-(4-Dimethylaminocinnamylidene)-2-fluorobenzoylhydrazide]	> 64.2	54.1 ± 9.1	–	55.2 ± 9.7	–	0.98
> 59.1	58.6 ± 8.6	160 to 161	–	CC(C)Cc1ccc(CC(C)/C=N/NC(=O)c2ccccc2O)cc1 (stereo not drawn) [Compound 3b, N′-2-Methyl-3-[4-(2-methylpropyl)phenyl]propanylidene-2-hydroxybenzoylhydrazide]	> 59.1	24.6 ± 3.3	–	13.7 ± 2.2	–	1.8
> 61.8	> 61.8	122 to 123	–	CC(C)Cc1ccc(CC(C)/C=N/NC(=O)c2ccncc2)cc1 (stereo not drawn) [Compound 3g, N′-2-Methyl-3-[4-(2-methylpropyl)phenyl]propanylidene-isonicotinoylhydrazide]	> 61.8	> 61.8	–	60.6 ± 10.1	–	–
